Laboratory results: PMC9506480, “Synthesis and Evaluation of Antiproliferative Activity, Topoisomerase IIα Inhibition, DNA Binding and Non-Clinical Toxicity of New Acridine–Thiosemicarbazone Derivatives” (Pharmaceuticals, 2022)

How the values were obtained:
[1] = test system: B16-F10 (murine melanoma); parameters: method as in Silva et al. (2018) [67]; conditions: ref Silva et al. (2018) [67]; cited from earlier work
[2] = test system: MRC-5 (human lung fibroblast); parameters: method as in Silva et al. (2018) [67]; conditions: ref Silva et al. (2018) [67]; cited from earlier work
[3] = test system: HepG2 (human hepatocellular carcinoma); parameters: method as in Silva et al. (2018) [67]; conditions: ref Silva et al. (2018) [67]; cited from earlier work
[4] = test system: HCT116 (human colon carcinoma); parameters: method as in Silva et al. (2018) [67]; conditions: ref Silva et al. (2018) [67]; cited from earlier work
CT DNA = CT DNA binding by UV–Vis absorption spectroscopy; parameters: species or system calf; conditions: compound 40 µM, CT DNA 0 to 60 µM, Tris-HCl pH 7.4
Protocol: Absorption spectroscopy is a convenient and simple method for probing the binding of small molecules to DNA. The interaction of selected acridine–thiosemicarbazone derivatives with CT DNA was studied in the 220–500 nm region. Binding constants (Kb) were calculated from [DNA]/(Ɛa − Ɛf) versus [DNA], in which Kb is given by the ratio of slope to the intercept. […] For this, the regions chosen were the ones with the highest absorption intensity above 300 nm, due to the lower interference in DNA absorption in this region (ESI, Figures S50 and S53).
The concentration of the calf thymus, Type I, fibers (CT DNA), was determined based on the extinction coefficient of the absorbance at 260 nm (6600 L mol^−1 cm^−1). All compounds were dissolved in methanol (HPLC grade) at a concentration of 1 mmol L^−1 (stock solution). Working solutions were prepared by diluting the stock solution using Tris-HCl buffer (pH 7.4), with concentrations of 40 µmol L^−1. Under the optimized concentration, the compounds were titered with increasing concentrations of CT DNA (5 to 60 µmol L^−1). After shaking the system and incubating at room temperature for 10 min, the measurements were recorded using a JASCO J818 spectropolarimeter in the range of 220 to 500 nm at 298 K. The intrinsic bond constant (Kb) was obtained by adjusting the data according to the equation below:[DNA]/(Ɛa − Ɛf) = [DNA]/(Ɛb − Ɛf) + 1/[Kb (Ɛb − Ɛf)] where Ɛa, Ɛb and Ɛf are the apparent extinction coefficient of the compounds, the extinction coefficient of the compounds found in their […] and the extinction coefficient of the compounds when fully DNA-bound, respectively. The graph of [DNA]/(Ɛa − Ɛf) versus [DNA] was used to obtain the Kb from the ratio between the slope and the intercept, as previously described in the literature. Binding data were obtained using SigmaPlot 10.0 software. The study of possible DNA denaturation using methanol–water solutions was evaluated up to the maximum final concentration of methanol in the assays (6%) (ESI, Figures S50 and S53).

Compound | IC50 [1] [µM] | IC50 [2] [µM] | IC50 [3] [µM] | IC50 [4] [µM] | Hypochromic (%) (CT DNA)
O=c1[nH]cc(F)c(=O)[nH]1 [5-FU, 5-fluorouracil] | 3.5 | 57.9 | 1.3 | 4.1 | 
CC[n+]1c(-c2ccccc2)c2cc(N)ccc2c2ccc(N)cc21 [EtBr, ethidium bromide, reference compound] |  |  |  |  | 35.15
